Results on two compounds are retold here after US20060008483A1, “Dispersions of lipids for use as therapeutic and cosmetic agents and intracellular delivery vehicles” (Biotech Tools SA, priority 2002, published 2006).

Series [1] concerns COS-7L cells (monkey fibroblasts). Briefly: Transfection of fibroblast cells with micellar dispersions of an amidinium salt, beta-galactosidase activity assay. To be noted: pCMV-β plasmid, relative to Lipofectamine plus, 3 h + 20 h incubation. The format is cell-based. How it is done: Functional transfection efficiency was then measured by means of a beta-galactosidase (hereinafter referred as β-GAL) activity assay as follows: cells were lysed by adding 250 μl of a lysis buffer (0.1 M potassium phosphate, 0.5% Triton® X-100, 0.1% deoxycholate, pH 7.0). The cell lysate (50 μl) was mixed with 50 μl o-nitrophenyl-β-D-galactopyranoside (1.54 mg/ml in 0.1 potassium phosphate buffer, pH 7.0) and incubated at 37° C. for 30 minutes. The reaction was terminated by adding 160 μl of 1 M Na2CO3 and absorbance was determined using a spectrophotometer at 405 nm. β-GAL activity was calculated using a β-GAL standard curve.
Immediately before the transfection experiments, the amidinium salt of Example 9 was dissolved at a concentration of 0.1 mg/mL in water containing 5.0 g/l glucose and 0.1 mg/mL protamine sulfate. The solution was successively vortexed, heated during 15 minutes at 50° C. and then cooled at 20° C.
COS-7L cells (monkey fibroblasts) were grown in DMEM supplemented with 10% heat inactivated foetal bovine serum and penicellin 100 IU/mL-streptomycin 100 μg/mL, and were maintained at 37° C. in a humidified 5% incubator. […]
(§1) Transfection efficiency was measured in terms of beta-galactosidase activity using the beta-galactosidase activity assay described in Example 5 above. Cytotoxicity was determined as described in Example 2 above.

The test system is the same in series [2]. Kind of series: Cytotoxicity in the micellar transfection experiment, determined as in Example 2. The series is classed as cell-based. As to conditions: transfection conditions of Example 12. How it is done: The resulting titrated liposomes were cooled and then passed through a 0.2 μm filter (in order to eliminate large particles) and an average liposome size of 90 nm was measured. Filtered liposomes were then packed in sterile vials and stored at 4° C. […] Cytotoxicity was determined by means of a (3-(4,5-dimethylthiazol-2-yl)-2,5-diphenyl tetrazolium bromide assay, using a kit commercially available from Promega Benelux (Leyden, The Netherlands). COS-7 monkey fibroblast cell survival was expressed as the amount of dye reduction relative to that of the untreated control cells. The titrated liposomes are not toxic on COS-7 cells, as determined by the Cytotox 96 non-radioactive cytotoxy assay G 1780.
COS-7L cells (monkey fibroblasts) were grown in DMEM supplemented with 10% heat inactivated foetal bovine serum and penicellin 100 IU/mL-streptomycin 100 μg/mL, and were maintained at 37° C. in a humidified 5% incubator. One day prior to the transfection experiment, the cells were seeded in a 24-well culture dish and allowed to reach at least 80% confluency.
as §1

The test system of series [3] is Chinese hamster Ovary cells or K562 human myeloid cells. As to conditions: MLV, WO 95/17378; cited from earlier work.
Series [4] in a line: Critical micellar concentration by surface tension (langmuir balance). The format is physicochemical. As to conditions: 25° C. How it is done:
The amidinium salt of example 9 was dissolved at various concentrations in either water pH 7.0, PB (20 mM phosphate, pH 7.3) or in PBS (20 mM phosphate buffer, 150 mM NaCl, pH 7.3).
A langmuir balance (Krüss K12) was used to measure the surface tension of a solution of increasing amino-amidine concentration. […] The corresponding concentration was taken as CMC.
To determine the effect of protamine sulfate on the CMC protamine sulfate (PS) was added at a final concentration of 0.2 mg/mL to solutions of increasing concentration of the amidinium salt of Example 9.

Regarding `CCCCCCCCCCCCCCN=C(CCNCCCCCCCCCCCCCC)NC(C)(C)C` [DiC14iPr, N-terbutyl-N′-tetradecyl-3-tetradecyl-aminopropionamidine], in series [1], the β-gal relative activity is recorded as 150%. Besides, the Toxicity entry in series [2] is reported as “None”. Also, the transfection efficiencies in series [3] is 60 to 68%.
`CCCCCCCCCCCCCCN=C(CCNCCCCCCCCCCCCCC)NC(C)(C)C` [Example 9, N-terbutyl-N′-tetradecyl-3-tetradecyl-aminopropionamidine]: the CMC in series [4] (in PB (20 mM phosphate, pH 7.3)) is 5.25e-05 M; in series [4] (in PBS (20 mM phosphate buffer, 150 mM NaCl, pH 7.3)), 6.75e-05 M; in series [4] (in PBS + protamine sulfate 0.2 mg/mL) it was 2e-05 M; in series [4] (in water pH 7.0, in M) it was 5×10^−4.
